Results on 23 compounds are retold here after ChEMBL document CHEMBL1127453, “Benzimidazole ribonucleosides: design, synthesis, and antiviral activity of certain 2-(alkylthio)- and 2-(benzylthio)-5,6-dichloro-1-(beta-D-ribofuranosyl)benzimidazoles” (J Med Chem, 1994).

Molecules are shown by their SMILES.

As a reminder, the IC50 is the concentration at which inhibition is half-maximal. Lower therefore signals higher potency. A word on the IC90: it is the point of the concentration-response curve where the effect stands at 90%. High values mean a need for much substance, low ones an effect from little substance.

In assay [1] the test system is Human betaherpesvirus 5. The assay can be described thus: Activity against human cytomegalovirus (HCMV) using plaque reduction assay. The class given is functional, organism-based. (In general: Plaques are areas of infected cells; plaque reduction assays count them against a control.)
The subject of assay [2] is HFF cells (Homo sapiens). Briefly: Tested for the visual cytotoxicity on HFF cells at the time of human cytomegalovirus (HCMV) plaque enumeration.
Assay [3] relates to Human alphaherpesvirus 1. Briefly: Tested for anti-viral activity against Herpes simplex virus type-1 using ELISA. The class given is functional, organism-based.
The test system of assay [4] is KB. The assay can be described thus: The inhibition of KB cell growth was determined. The class given is functional, cell-based. Conditions: Homo sapiens.
Assay [5] deals with Human betaherpesvirus 5. Briefly: Tested for the activity against human cytomegalovirus (HCMV) using yield reduction assay. The class given is functional.

As to `OC[C@@H]1O[C@@H](n2c(S)nc3cc(Cl)c(Cl)cc32)[C@H](O)[C@@H]1O`, the IC50 was above 100 µM in assay [1] and 100 µM in assay [2].

In the case of `CSc1nc2cc(Cl)c(Cl)cc2n1[C@@H]1O[C@@H](CO)[C@@H](O)[C@H]1O`, the IC50 in assay [1] and in assay [2] was above 100 µM in each case.

Take `OC[C@H]1OC(n2c(SCc3ccc(Cl)c(Cl)c3)nc3cc(Cl)c(Cl)cc32)[C@H](O)[C@@H]1O` (some centres not stated): the IC50 was above 30 µM in assay [3], 28 µM in assay [1] and 32 µM in assay [2].

As for `OC[C@H]1OC(n2c(SCc3ccc(Br)cc3)nc3cc(Cl)c(Cl)cc32)[C@H](O)[C@@H]1O` (some centres not stated), the 50% inhibitory concentration (IC50) in assay [3] is 30 µM; in assay [1] it was 30 µM; in assay [4], 20 µM; in assay [2], 32 µM.

Consider `C#CCSc1nc2cc(Cl)c(Cl)cc2n1C1O[C@H](CO)[C@@H](O)[C@H]1O` (some centres not stated), for which the IC50 in assay [3] was found to be 100 µM; in assay [1], 25 µM; in assay [4] it was 60 µM; in assay [2], 100 µM.

On to `O=[N+]([O-])c1cccc(CSc2nc3cc(Cl)c(Cl)cc3n2C2O[C@H](CO)[C@@H](O)[C@H]2O)c1` (some centres not stated), for which the 50% inhibitory concentration (IC50) turned out to be 50 µM in assay [3], 40 µM in assay [1], 25 µM in assay [4] and 32 µM in assay [2].

For `COc1ccc(CSc2nc3cc(Cl)c(Cl)cc3n2C2O[C@H](CO)[C@@H](O)[C@H]2O)cc1` (some centres not stated), the IC50 is above 100 µM in assay [3], 40 µM in assay [1], 41 µM in assay [4] and 66 µM in assay [2].

For the compound `OC[C@H]1OC(n2c(SCc3cccc(C(F)(F)F)c3)nc3cc(Cl)c(Cl)cc32)[C@H](O)[C@@H]1O` (some centres not stated), the IC50 in assay [3] was determined as 40 µM; in assay [1], 40 µM; in assay [4], 15 µM; in assay [2], 32 µM.

Turning to `OC[C@H]1OC(n2c(SCc3ccccc3Cl)nc3cc(Cl)c(Cl)cc32)[C@H](O)[C@@H]1O` (some centres not stated), the IC50 in assay [3] was 60 µM; in assay [1], 40 µM; in assay [4] it was 30 µM; in assay [2] it was 32 µM.

In the case of `CC(C)(C)c1ccc(CSc2nc3cc(Cl)c(Cl)cc3n2C2O[C@H](CO)[C@@H](O)[C@H]2O)cc1` (some centres not stated), the IC50 in assay [3] turned out to be 20 µM; in assay [1], 20 µM; in assay [4] it was 50 µM; in assay [2] it was 32 µM.

In the case of `CS(=O)(=O)c1nc2cc(Cl)c(Cl)cc2n1C1O[C@H](CO)[C@@H](O)[C@H]1O` (some centres not stated), the 50% inhibitory concentration (IC50) in assay [1] and in assay [2] was 10 µM each time.

On to `OC[C@H]1OC(n2c(SCc3ccc(F)cc3)nc3cc(Cl)c(Cl)cc32)[C@H](O)[C@@H]1O` (some centres not stated), for which the half-inhibitory concentration (IC50) in assay [3] is above 30 µM; in assay [1], 30 µM; in assay [2] it was 21 µM.

Take `N#CCSc1nc2cc(Cl)c(Cl)cc2n1C1O[C@H](CO)[C@@H](O)[C@H]1O` (some centres not stated): the IC50 in assay [3] was above 100 µM; in assay [1], 30 µM; in assay [4] it was above 100 µM; in assay [2], 100 µM. It took 10 µM to reach the 90% level in assay [5] (IC90).

Regarding `Cc1ccc(CSc2nc3cc(Cl)c(Cl)cc3n2C2O[C@H](CO)[C@@H](O)[C@H]2O)cc1` (some centres not stated), the IC50 in assay [3] is above 30 µM; in assay [1], 30 µM; in assay [2], 32 µM.

Regarding `Cc1cccc(CSc2nc3cc(Cl)c(Cl)cc3n2C2O[C@H](CO)[C@@H](O)[C@H]2O)c1` (some centres not stated), the IC50 in assay [3] was 38 µM; in assay [1] it was 40 µM; in assay [4], 30 µM; in assay [2], 32 µM.

Regarding `C=CCSc1nc2cc(Cl)c(Cl)cc2n1C1O[C@H](CO)[C@@H](O)[C@H]1O` (some centres not stated), the IC50 in assay [3] is above 100 µM; in assay [1] it was above 100 µM; in assay [4], 68 µM; in assay [2] it was 24 µM.

As to `O=[N+]([O-])c1ccc(CSc2nc3cc(Cl)c(Cl)cc3n2C2O[C@H](CO)[C@@H](O)[C@H]2O)cc1` (some centres not stated), the IC50 in assay [3] is 40 µM; in assay [1], 40 µM; in assay [4], 30 µM; in assay [2] it was 32 µM.

In the case of `OC[C@H]1OC(n2c(SCc3ccc(Cl)cc3)nc3cc(Cl)c(Cl)cc32)[C@H](O)[C@@H]1O` (some centres not stated), the IC50 in assay [3] was above 30 µM; in assay [1] it was above 100 µM; in assay [2], 100 µM.

Take `OC[C@H]1OC(n2c(SCc3cccc(Cl)c3)nc3cc(Cl)c(Cl)cc32)[C@H](O)[C@@H]1O` (some centres not stated): the IC50 in assay [3] worked out at 70 µM; in assay [1], 25 µM; in assay [4], 19 µM; in assay [2], 21 µM.

`Nc1nc2c(ncn2COCCO)c(=O)[nH]1` [ACYCLOVIR]: the IC50 is 1.7 µM in assay [3], 86 µM in assay [1], above 100 µM in assay [4] and above 100 µM in assay [2]. Also, it took 85 µM to reach the 90% level in assay [5] (IC90).

For the compound `OC[C@H]1O[C@@H](n2cnc3cc(Cl)c(Cl)cc32)[C@H](O)[C@@H]1O` [DICHLORORIBOBENZIMIDAZOLE], the IC50 in assay [3] was found to be 30 µM; in assay [1], 42 µM; in assay [4], 100 µM; in assay [2], 24 µM. This compound also gave an IC90 in assay [5] of 19 µM.

Consider `O=C(O)P(=O)(O)O` [FOSCARNET], for which the IC50 in assay [1] is 39 µM; in assay [2], above 100 µM.

In the case of `Nc1nc2c(ncn2COC(CO)CO)c(=O)[nH]1` [GANCICLOVIR], in assay [5], the IC90 was determined as 1.6 µM. The IC50 in assay [1] is 7.4 µM; in assay [2], above 100 µM.
